Experimental data: PubChem BioAssay AID2060506 (Molecular Pharmacology Branch, DTP, NCI, 2025)

System: 598228-144-R-J1-PDC complex spheroid viability
Assay: Anticancer human tumor 598228-144-R-J1-PDC patient-derived serous endometrial adenocarcinoma cell line growth inhibition [GQUAD]
Details: for IC50: curve of first compound; for viability, T/C: stronger effect = lower value
Summary of the method: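 Tumor cells were grown as complex spheroids with HUVEC endothelial cells and mesenchymal stem cells as stroma. G-quadruplex stabilizers were combined with targeted agents over half-log dilutions from near the clinical Cmax, or from 10 microM.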

[1] = second compound 0.0316 µM, first compound 0.0316 µM
[2] = second compound 0.0316 µM, first compound 0.1 µM
[3] = second compound 0.0316 µM, first compound 0.316 µM
[4] = second compound 0.0316 µM, first compound 1 µM
[5] = second compound 0.0316 µM, first compound 3.16 µM
[6] = second compound 0.0316 µM, first compound 10 µM
[7] = second compound 0.1 µM, first compound 0.0316 µM
[8] = second compound 0.1 µM, first compound 0.1 µM
[9] = second compound 0.1 µM, first compound 0.316 µM
[10] = second compound 0.1 µM, first compound 1 µM
[11] = second compound 0.1 µM, first compound 3.16 µM
[12] = second compound 0.1 µM, first compound 10 µM
[13] = second compound 0.316 µM, first compound 0.0316 µM
[14] = second compound 0.316 µM, first compound 0.1 µM
[15] = second compound 0.316 µM, first compound 0.316 µM
[16] = second compound 0.316 µM, first compound 1 µM
[17] = second compound 0.316 µM, first compound 3.16 µM
[18] = second compound 0.316 µM, first compound 10 µM
[19] = second compound 1 µM, first compound 0.0316 µM
[20] = second compound 1 µM, first compound 0.1 µM
[21] = second compound 1 µM, first compound 0.316 µM
[22] = second compound 1 µM, first compound 1 µM
[23] = second compound 1 µM, first compound 3.16 µM
[24] = second compound 1 µM, first compound 10 µM
[25] = second compound 3.16 µM, first compound 0.0316 µM
[26] = second compound 3.16 µM, first compound 0.1 µM
[27] = second compound 3.16 µM, first compound 0.316 µM
[28] = second compound 3.16 µM, first compound 1 µM
[29] = second compound 3.16 µM, first compound 3.16 µM
[30] = second compound 3.16 µM, first compound 10 µM
[31] = second compound 10 µM, first compound 0.0316 µM
[32] = second compound 10 µM, first compound 0.1 µM
[33] = second compound 10 µM, first compound 0.316 µM
[34] = second compound 10 µM, first compound 1 µM
[35] = second compound 10 µM, first compound 3.16 µM
[36] = second compound 10 µM, first compound 10 µM
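Also: spheroids exposed to the agents for one week before reading.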
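For viability, T/C in this document: percent of vehicle DMSO control viability so 100% = untreated growth.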

## CC1COCCN1c1cc(C2(S(C)(=N)=O)CC2)nc(-c2ccnc3[nH]ccc23)n1 (stereo not given) + Cc1[nH]c2ccc(F)cc2c1-c1nc2c3cccnc3c3ncccc3c2[nH]1
Second compound 0.0316 µM
  IC50: > 10000 nM
Second compound 0.1 µM
  IC50: 5230 nM
Second compound 0.316 µM
  IC50: 914 nM
Second compound 1 µM
  IC50: 551 nM
Second compound 3.16 µM
  IC50: < 31.6 nM
Second compound 10 µM
  IC50: 629 nM
[1]
  viability, T/C: 114%
[2]
  viability, T/C: 108%
[3]
  viability, T/C: 89.2%
[4]
  viability, T/C: 69.9%
[5]
  viability, T/C: 73%
[6]
  viability, T/C: 50%
[7]
  viability, T/C: 106%
[8]
  viability, T/C: 100%
[9]
  viability, T/C: 97.7%
[10]
  viability, T/C: 87.1%
[11]
  viability, T/C: 56.9%
[12]
  viability, T/C: 40.5%
[13]
  viability, T/C: 97.3%
[14]
  viability, T/C: 94.4%
[15]
  viability, T/C: 69%
[16]
  viability, T/C: 47%
[17]
  viability, T/C: 52.9%
[18]
  viability, T/C: 43.3%
[19]
  viability, T/C: 58%
[20]
  viability, T/C: 59.7%
[21]
  viability, T/C: 58.9%
[22]
  viability, T/C: 40.5%
[23]
  viability, T/C: 45.1%
[24]
  viability, T/C: 34.5%
[25]
  viability, T/C: 36.9%
[26]
  viability, T/C: 42.2%
[27]
  viability, T/C: 39.2%
[28]
  viability, T/C: 36.8%
[29]
  viability, T/C: 39.7%
[30]
  viability, T/C: 35.6%
[31]
  viability, T/C: 60.3%
[32]
  viability, T/C: 53.8%
[33]
  viability, T/C: 59.4%
[34]
  viability, T/C: 43.1%
[35]
  viability, T/C: 44.6%
[36]
  viability, T/C: 41.5%

## C=CCn1c(=O)c2cnc(Nc3ccc(N4CCN(C)CC4)cc3)nc2n1-c1cccc(C(C)(C)O)n1 + Cc1cnc(CNC(=O)c2c(=O)c3ccc(N4CCCN(C)CC4)nc3n3c2sc2ccccc23)cn1
Second compound 0.0316 µM
  IC50: 10000 nM
Second compound 0.1 µM
  IC50: 445 nM
Second compound 0.316 µM
  IC50: 1220 nM
Second compound 1 µM
  IC50: 655 nM
Second compound 3.16 µM
  IC50: < 31.6 nM
Second compound 10 µM
  IC50: < 31.6 nM
[1]
  viability, T/C: 76%
[2]
  viability, T/C: 95%
[3]
  viability, T/C: 61.1%
[4]
  viability, T/C: 44.1%
[5]
  viability, T/C: 45.2%
[6]
  viability, T/C: 61.6%
[7]
  viability, T/C: 82.7%
[8]
  viability, T/C: 74.3%
[9]
  viability, T/C: 51.7%
[10]
  viability, T/C: 45.5%
[11]
  viability, T/C: 43.7%
[12]
  viability, T/C: 38%
[13]
  viability, T/C: 71.4%
[14]
  viability, T/C: 74.5%
[15]
  viability, T/C: 65.9%
[16]
  viability, T/C: 52.5%
[17]
  viability, T/C: 40.6%
[18]
  viability, T/C: 42.6%
[19]
  viability, T/C: 86.5%
[20]
  viability, T/C: 55.4%
[21]
  viability, T/C: 55.3%
[22]
  viability, T/C: 60.3%
[23]
  viability, T/C: 41.6%
[24]
  viability, T/C: 39.8%
[25]
  viability, T/C: 50.8%
[26]
  viability, T/C: 47.6%
[27]
  viability, T/C: 42.3%
[28]
  viability, T/C: 41%
[29]
  viability, T/C: 52.5%
[30]
  viability, T/C: 41.1%
[31]
  viability, T/C: 24.5%
[32]
  viability, T/C: 42.1%
[33]
  viability, T/C: 19.2%
[34]
  viability, T/C: 0.53%
[35]
  viability, T/C: 0.58%
[36]
  viability, T/C: 21.5%

## CCCS(=O)(=O)Nc1ccc(F)c(C(=O)c2c[nH]c3ncc(-c4ccc(Cl)cc4)cc23)c1F + Cc1cnc(CNC(=O)c2c(=O)c3ccc(N4CCCN(C)CC4)nc3n3c2sc2ccccc23)cn1
Second compound 0.0316 µM
  IC50: 6970 nM
Second compound 0.1 µM
  IC50: 6450 nM
Second compound 0.316 µM
  IC50: 4940 nM
Second compound 1 µM
  IC50: 5230 nM
Second compound 3.16 µM
  IC50: 3620 nM
Second compound 10 µM
  IC50: < 31.6 nM
[1]
  viability, T/C: 92.8%
[2]
  viability, T/C: 96%
[3]
  viability, T/C: 113%
[4]
  viability, T/C: 92.5%
[5]
  viability, T/C: 109%
[6]
  viability, T/C: 26.9%
[7]
  viability, T/C: 77.7%
[8]
  viability, T/C: 81.5%
[9]
  viability, T/C: 60.7%
[10]
  viability, T/C: 65.6%
[11]
  viability, T/C: 92.2%
[12]
  viability, T/C: 34.4%
[13]
  viability, T/C: 59.4%
[14]
  viability, T/C: 82%
[15]
  viability, T/C: 74%
[16]
  viability, T/C: 62.3%
[17]
  viability, T/C: 65.7%
[18]
  viability, T/C: 27.3%
[19]
  viability, T/C: 64.5%
[20]
  viability, T/C: 70.7%
[21]
  viability, T/C: 62.3%
[22]
  viability, T/C: 65.6%
[23]
  viability, T/C: 73.8%
[24]
  viability, T/C: 27.7%
[25]
  viability, T/C: 59.9%
[26]
  viability, T/C: 47.5%
[27]
  viability, T/C: 48.4%
[28]
  viability, T/C: 61.5%
[29]
  viability, T/C: 65.6%
[30]
  viability, T/C: 0.38%
[31]
  viability, T/C: 33.5%
[32]
  viability, T/C: 32.5%
[33]
  viability, T/C: 18.7%
[34]
  viability, T/C: 24.7%
[35]
  viability, T/C: 40.9%
[36]
  viability, T/C: 0.26%

## CC(C)(O)C1CCC(Nc2ccc3ncc(-c4cccc(C(F)(F)F)c4)n3n2)CC1 (stereo not given) + Cc1cnc(CNC(=O)c2c(=O)c3ccc(N4CCCN(C)CC4)nc3n3c2sc2ccccc23)cn1
Second compound 0.0316 µM
  IC50: 1390 nM
Second compound 0.1 µM
  IC50: 887 nM
Second compound 0.316 µM
  IC50: 1200 nM
Second compound 1 µM
  IC50: 1260 nM
Second compound 3.16 µM
  IC50: 398 nM
Second compound 10 µM
  IC50: < 31.6 nM
[1]
  viability, T/C: 76.5%
[2]
  viability, T/C: 93.7%
[3]
  viability, T/C: 73.2%
[4]
  viability, T/C: 62.9%
[5]
  viability, T/C: 16.7%
[6]
  viability, T/C: 17.8%
[7]
  viability, T/C: 73.7%
[8]
  viability, T/C: 69.2%
[9]
  viability, T/C: 70.2%
[10]
  viability, T/C: 46.4%
[11]
  viability, T/C: 22.9%
[12]
  viability, T/C: 10.9%
[13]
  viability, T/C: 77%
[14]
  viability, T/C: 53.6%
[15]
  viability, T/C: 74.7%
[16]
  viability, T/C: 56.1%
[17]
  viability, T/C: 17.7%
[18]
  viability, T/C: 17.6%
[19]
  viability, T/C: 64.2%
[20]
  viability, T/C: 45.9%
[21]
  viability, T/C: 58.2%
[22]
  viability, T/C: 65.8%
[23]
  viability, T/C: 13.6%
[24]
  viability, T/C: 18.3%
[25]
  viability, T/C: 51.2%
[26]
  viability, T/C: 56.8%
[27]
  viability, T/C: 55.2%
[28]
  viability, T/C: 32.6%
[29]
  viability, T/C: 0.22%
[30]
  viability, T/C: 0.19%
[31]
  viability, T/C: 25.4%
[32]
  viability, T/C: 0.49%
[33]
  viability, T/C: 33%
[34]
  viability, T/C: 0.33%
[35]
  viability, T/C: 0.26%
[36]
  viability, T/C: 5.96%

## COc1cccc2c1C(=O)c1c(O)c3c(c(O)c1C2=O)CC(O)(C(=O)CO)CC3OC1CC(N)C(O)C(C)O1 (stereo not given) + CN(C)c1ccc(Nc2c3ccc(NC(=O)CCN4CCCC4)cc3nc3cc(NC(=O)CCN4CCCC4)ccc23)cc1
Second compound 0.0316 µM
  IC50: 547 nM
Second compound 0.1 µM
  IC50: 586 nM
Second compound 0.316 µM
  IC50: 617 nM
Second compound 1 µM
  IC50: 655 nM
Second compound 3.16 µM
  IC50: 774 nM
Second compound 10 µM
  IC50: 536 nM
[1]
  viability, T/C: 79.1%
[2]
  viability, T/C: 83.3%
[3]
  viability, T/C: 66.6%
[4]
  viability, T/C: 31%
[5]
  viability, T/C: 1.02%
[6]
  viability, T/C: 0.57%
[7]
  viability, T/C: 95.5%
[8]
  viability, T/C: 84.8%
[9]
  viability, T/C: 71%
[10]
  viability, T/C: 33.5%
[11]
  viability, T/C: 2.25%
[12]
  viability, T/C: 0.29%
[13]
  viability, T/C: 96.1%
[14]
  viability, T/C: 73.2%
[15]
  viability, T/C: 68.9%
[16]
  viability, T/C: 42.2%
[17]
  viability, T/C: 3.61%
[18]
  viability, T/C: 0.89%
[19]
  viability, T/C: 87.1%
[20]
  viability, T/C: 73.7%
[21]
  viability, T/C: 58.4%
[22]
  viability, T/C: 51.9%
[23]
  viability, T/C: 1.46%
[24]
  viability, T/C: 1.05%
[25]
  viability, T/C: 81.6%
[26]
  viability, T/C: 80.1%
[27]
  viability, T/C: 71.6%
[28]
  viability, T/C: 44.3%
[29]
  viability, T/C: 1.7%
[30]
  viability, T/C: 0.36%
[31]
  viability, T/C: 59.8%
[32]
  viability, T/C: 64.5%
[33]
  viability, T/C: 47.7%
[34]
  viability, T/C: 42.3%
[35]
  viability, T/C: 1.22%
[36]
  viability, T/C: 0.77%
